The text below walks through data of ChEMBL document CHEMBL5653615 (J Biol Chem, 2013).

Molecules are shown by their SMILES.

Experiment [1] addresses Protein-tyrosine kinase 6 (Homo sapiens) (UniProt Q13882). Briefly: Inhibition of human BRK at 500 nM by HotSpot assay relative to control.
Experiment [2] concerns the target T1, cGMP-dependent protein kinase 1 (Homo sapiens) (UniProt Q13976).
T1 sequence (whole entry): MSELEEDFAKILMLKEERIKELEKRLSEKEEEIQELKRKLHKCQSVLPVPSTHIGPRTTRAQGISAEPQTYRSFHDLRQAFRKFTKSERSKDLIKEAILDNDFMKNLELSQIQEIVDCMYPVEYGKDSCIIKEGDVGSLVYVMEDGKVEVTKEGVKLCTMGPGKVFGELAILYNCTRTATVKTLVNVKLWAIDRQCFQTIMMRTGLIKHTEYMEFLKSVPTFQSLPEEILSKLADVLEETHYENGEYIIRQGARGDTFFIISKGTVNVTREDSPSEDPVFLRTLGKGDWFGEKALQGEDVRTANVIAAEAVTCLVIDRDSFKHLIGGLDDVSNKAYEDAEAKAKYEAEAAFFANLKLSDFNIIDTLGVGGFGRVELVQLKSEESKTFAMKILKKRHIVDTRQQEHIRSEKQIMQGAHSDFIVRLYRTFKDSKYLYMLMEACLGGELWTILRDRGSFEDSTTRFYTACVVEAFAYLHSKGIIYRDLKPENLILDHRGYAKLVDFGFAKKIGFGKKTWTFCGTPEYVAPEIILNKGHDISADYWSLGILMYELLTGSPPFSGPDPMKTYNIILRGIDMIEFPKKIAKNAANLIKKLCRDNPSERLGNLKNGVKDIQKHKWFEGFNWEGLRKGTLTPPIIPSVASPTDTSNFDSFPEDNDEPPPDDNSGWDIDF
The experiment in a line: Inhibition of human PKG1b at 500 nM by HotSpot assay relative to control.

In experiment [3] the target is T2, Myotonin-protein kinase (Homo sapiens) (UniProt Q09013).
T2 sequence (whole entry): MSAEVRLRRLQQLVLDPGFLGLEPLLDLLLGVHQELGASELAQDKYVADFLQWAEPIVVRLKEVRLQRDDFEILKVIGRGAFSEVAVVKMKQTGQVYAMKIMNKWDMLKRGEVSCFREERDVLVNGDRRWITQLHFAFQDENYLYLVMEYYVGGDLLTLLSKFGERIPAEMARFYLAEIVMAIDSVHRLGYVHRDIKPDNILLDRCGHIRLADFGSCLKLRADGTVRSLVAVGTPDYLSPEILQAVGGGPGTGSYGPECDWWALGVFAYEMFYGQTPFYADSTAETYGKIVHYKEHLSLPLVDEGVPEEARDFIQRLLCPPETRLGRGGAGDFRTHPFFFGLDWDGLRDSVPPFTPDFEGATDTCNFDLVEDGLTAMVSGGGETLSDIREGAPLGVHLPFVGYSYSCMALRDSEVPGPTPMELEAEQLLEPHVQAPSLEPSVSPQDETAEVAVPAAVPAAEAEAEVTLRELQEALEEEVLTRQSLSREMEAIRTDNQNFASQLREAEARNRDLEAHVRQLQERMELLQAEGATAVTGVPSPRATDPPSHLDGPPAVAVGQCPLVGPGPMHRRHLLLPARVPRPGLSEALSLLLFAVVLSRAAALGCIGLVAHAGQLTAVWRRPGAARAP
The experiment in a line: Inhibition of human DMPK at 500 nM by HotSpot assay relative to control.

Experiment [4] concerns the target Cyclin-dependent kinase 5/CDK5 activator 1 (Homo sapiens) (UniProt Q00535+Q15078). The experiment in a line: Inhibition of human CDK5/p25 at 500 nM by HotSpot assay relative to control. Type of experiment: protein-complex assay.
Experiment [5] addresses Proto-oncogene tyrosine-protein kinase ROS (Homo sapiens) (UniProt P08922). Briefly: Inhibition of human ROS1 at 500 nM by HotSpot assay relative to control.
The target in experiment [6] is Calcium/calmodulin-dependent protein kinase type 1G (Homo sapiens) (UniProt Q96NX5). The experiment in a line: Inhibition of human CAMK1g at 500 nM by HotSpot assay relative to control.
For experiment [7], the target named is T3, Mitogen-activated protein kinase kinase kinase 2 (Homo sapiens) (UniProt Q9Y2U5).
T3 sequence (whole entry): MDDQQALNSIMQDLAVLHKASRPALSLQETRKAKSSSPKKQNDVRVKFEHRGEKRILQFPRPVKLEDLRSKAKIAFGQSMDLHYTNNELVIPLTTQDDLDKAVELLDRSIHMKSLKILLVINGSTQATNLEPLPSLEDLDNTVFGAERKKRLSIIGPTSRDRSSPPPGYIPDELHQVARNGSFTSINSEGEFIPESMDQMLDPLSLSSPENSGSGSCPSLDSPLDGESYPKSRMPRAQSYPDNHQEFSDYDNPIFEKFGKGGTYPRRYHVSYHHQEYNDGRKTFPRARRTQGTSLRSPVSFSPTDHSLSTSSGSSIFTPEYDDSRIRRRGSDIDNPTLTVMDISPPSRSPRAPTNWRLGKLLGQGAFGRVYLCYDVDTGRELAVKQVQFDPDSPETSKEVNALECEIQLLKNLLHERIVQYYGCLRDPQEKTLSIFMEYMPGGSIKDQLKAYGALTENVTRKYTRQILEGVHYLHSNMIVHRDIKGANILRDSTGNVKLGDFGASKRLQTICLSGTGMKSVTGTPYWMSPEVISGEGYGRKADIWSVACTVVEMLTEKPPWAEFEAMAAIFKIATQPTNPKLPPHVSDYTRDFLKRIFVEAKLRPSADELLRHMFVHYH
The experiment in a line: Inhibition of human MEKK2 at 500 nM by HotSpot assay relative to control.

Experiment [8] deals with Platelet-derived growth factor receptor alpha (Homo sapiens) (UniProt P16234). The experiment in a line: Inhibition of human PDGFRa at 500 nM by HotSpot assay relative to control.
In experiment [9] the target is T4, Aurora kinase A (Homo sapiens) (UniProt O14965).
T4 sequence (whole entry): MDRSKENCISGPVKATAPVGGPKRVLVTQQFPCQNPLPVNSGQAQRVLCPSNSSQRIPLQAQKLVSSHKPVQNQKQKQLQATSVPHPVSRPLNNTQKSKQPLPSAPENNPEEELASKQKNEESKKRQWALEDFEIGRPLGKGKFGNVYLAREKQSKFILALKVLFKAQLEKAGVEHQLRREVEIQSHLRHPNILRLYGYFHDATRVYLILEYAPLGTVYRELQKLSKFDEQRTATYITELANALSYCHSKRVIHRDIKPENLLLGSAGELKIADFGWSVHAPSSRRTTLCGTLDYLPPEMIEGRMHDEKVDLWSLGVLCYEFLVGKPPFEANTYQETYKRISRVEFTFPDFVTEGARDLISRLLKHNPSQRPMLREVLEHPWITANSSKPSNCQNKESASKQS
Briefly: Inhibition of human Aurora A at 500 nM by HotSpot assay relative to control.

Experiment [10] has as its target Serine/threonine-protein kinase PLK1 (Homo sapiens) (UniProt P53350). Briefly: Inhibition of human PLK1 at 500 nM by HotSpot assay relative to control.
Experiment [11] concerns the target Phosphorylase b kinase gamma catalytic chain, skeletal muscle/heart isoform (Homo sapiens) (UniProt Q16816). Briefly: Inhibition of human PHKg1 at 500 nM by HotSpot assay relative to control.

A word on the inhibition: it is the relative decrease from the control value, in per cent.

Cyclin-dependent kinase 5/CDK5 activator 1 (Homo sapiens), sequence (Q00535 whole entry): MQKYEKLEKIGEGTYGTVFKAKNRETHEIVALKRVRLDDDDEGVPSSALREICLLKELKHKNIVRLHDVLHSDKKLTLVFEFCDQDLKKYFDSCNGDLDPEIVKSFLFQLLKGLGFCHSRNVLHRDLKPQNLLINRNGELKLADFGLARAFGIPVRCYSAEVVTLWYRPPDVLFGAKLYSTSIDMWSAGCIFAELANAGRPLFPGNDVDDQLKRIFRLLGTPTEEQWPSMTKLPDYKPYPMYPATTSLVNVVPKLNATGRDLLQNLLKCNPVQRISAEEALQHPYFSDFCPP
Cyclin-dependent kinase 5/CDK5 activator 1 (Homo sapiens), sequence (Q15078 99-307 partner limits assumed): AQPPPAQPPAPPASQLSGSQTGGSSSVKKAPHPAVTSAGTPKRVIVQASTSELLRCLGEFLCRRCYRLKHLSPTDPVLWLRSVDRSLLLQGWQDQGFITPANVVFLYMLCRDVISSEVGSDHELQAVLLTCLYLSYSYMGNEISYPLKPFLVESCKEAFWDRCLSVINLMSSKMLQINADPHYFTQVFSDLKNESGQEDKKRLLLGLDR
Serine/threonine-protein kinase PLK1 (Homo sapiens), sequence (P53350 whole entry, canonical isoform): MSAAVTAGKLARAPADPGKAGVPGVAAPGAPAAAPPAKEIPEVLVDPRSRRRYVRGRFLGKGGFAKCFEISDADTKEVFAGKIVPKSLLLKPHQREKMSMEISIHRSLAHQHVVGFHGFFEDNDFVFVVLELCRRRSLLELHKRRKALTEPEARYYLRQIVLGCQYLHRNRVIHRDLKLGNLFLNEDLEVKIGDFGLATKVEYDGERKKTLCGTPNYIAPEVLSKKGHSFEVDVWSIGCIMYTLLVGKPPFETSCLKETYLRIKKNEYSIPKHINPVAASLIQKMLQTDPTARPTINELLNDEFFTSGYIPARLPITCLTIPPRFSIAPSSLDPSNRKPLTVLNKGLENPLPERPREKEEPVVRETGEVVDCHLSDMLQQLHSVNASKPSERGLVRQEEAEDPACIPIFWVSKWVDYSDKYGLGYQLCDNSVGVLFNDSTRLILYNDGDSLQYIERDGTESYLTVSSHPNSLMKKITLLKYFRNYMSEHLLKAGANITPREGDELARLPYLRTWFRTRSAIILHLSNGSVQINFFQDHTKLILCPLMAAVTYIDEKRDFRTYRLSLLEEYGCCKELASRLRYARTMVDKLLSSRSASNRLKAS
Proto-oncogene tyrosine-protein kinase ROS (Homo sapiens), sequence (P08922 whole entry): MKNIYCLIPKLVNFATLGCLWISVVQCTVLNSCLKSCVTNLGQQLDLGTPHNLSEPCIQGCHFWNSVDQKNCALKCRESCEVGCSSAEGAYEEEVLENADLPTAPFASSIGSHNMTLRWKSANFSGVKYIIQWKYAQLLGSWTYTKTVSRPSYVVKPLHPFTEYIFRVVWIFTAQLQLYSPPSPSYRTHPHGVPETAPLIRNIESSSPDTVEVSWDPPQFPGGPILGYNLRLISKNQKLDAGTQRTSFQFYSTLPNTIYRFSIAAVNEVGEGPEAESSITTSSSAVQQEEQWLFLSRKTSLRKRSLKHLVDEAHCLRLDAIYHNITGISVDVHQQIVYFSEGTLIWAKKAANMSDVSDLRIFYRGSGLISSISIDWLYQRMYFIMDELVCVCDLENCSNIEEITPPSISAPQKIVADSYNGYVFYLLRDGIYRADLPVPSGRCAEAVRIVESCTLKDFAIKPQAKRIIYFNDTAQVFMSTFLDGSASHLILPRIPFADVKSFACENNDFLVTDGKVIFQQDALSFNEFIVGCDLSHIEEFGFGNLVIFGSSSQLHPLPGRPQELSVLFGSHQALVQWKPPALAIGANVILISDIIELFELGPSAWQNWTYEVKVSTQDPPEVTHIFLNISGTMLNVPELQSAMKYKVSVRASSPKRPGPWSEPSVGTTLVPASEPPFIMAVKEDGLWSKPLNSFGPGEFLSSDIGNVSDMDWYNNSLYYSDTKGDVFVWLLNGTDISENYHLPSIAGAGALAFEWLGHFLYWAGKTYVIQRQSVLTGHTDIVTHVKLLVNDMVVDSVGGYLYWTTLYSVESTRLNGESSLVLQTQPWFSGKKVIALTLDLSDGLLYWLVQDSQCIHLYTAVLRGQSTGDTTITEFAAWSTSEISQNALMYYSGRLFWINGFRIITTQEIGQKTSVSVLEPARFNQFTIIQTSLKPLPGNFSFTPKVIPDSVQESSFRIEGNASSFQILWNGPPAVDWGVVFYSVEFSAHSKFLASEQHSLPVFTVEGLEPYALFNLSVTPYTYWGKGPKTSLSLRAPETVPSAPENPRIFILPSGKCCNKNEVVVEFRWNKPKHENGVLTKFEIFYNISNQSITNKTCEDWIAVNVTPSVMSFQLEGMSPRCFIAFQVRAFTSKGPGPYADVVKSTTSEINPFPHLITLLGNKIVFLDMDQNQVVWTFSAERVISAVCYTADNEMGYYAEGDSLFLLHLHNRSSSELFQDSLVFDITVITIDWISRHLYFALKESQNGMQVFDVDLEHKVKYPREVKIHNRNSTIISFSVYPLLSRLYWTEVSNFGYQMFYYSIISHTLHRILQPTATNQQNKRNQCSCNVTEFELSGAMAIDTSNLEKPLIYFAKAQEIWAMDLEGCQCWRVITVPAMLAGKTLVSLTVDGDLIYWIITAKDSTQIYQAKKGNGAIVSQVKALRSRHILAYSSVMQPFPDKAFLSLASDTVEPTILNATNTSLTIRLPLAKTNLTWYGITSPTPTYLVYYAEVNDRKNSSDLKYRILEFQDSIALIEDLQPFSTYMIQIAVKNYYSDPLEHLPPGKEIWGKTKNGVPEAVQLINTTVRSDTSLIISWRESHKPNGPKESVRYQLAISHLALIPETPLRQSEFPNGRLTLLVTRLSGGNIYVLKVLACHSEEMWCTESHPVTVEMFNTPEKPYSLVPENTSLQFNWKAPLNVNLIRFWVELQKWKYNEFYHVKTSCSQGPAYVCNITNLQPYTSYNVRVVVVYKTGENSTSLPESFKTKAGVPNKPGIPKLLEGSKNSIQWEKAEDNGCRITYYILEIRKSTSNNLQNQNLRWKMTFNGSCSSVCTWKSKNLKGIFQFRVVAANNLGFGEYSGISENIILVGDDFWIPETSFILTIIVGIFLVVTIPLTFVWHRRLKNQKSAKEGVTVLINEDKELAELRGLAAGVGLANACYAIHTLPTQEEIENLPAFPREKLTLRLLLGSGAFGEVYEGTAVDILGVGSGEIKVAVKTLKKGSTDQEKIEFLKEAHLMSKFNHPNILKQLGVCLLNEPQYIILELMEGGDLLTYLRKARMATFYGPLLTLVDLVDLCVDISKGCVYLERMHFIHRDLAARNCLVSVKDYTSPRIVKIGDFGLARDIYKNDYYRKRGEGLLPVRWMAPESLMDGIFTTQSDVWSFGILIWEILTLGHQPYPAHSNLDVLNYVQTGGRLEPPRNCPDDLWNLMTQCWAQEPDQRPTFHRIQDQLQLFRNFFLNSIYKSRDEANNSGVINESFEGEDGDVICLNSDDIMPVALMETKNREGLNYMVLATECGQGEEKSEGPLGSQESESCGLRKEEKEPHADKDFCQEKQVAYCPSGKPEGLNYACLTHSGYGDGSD
Phosphorylase b kinase gamma catalytic chain, skeletal muscle/heart isoform (Homo sapiens), sequence (Q16816 whole entry, looked up, canonical isoform): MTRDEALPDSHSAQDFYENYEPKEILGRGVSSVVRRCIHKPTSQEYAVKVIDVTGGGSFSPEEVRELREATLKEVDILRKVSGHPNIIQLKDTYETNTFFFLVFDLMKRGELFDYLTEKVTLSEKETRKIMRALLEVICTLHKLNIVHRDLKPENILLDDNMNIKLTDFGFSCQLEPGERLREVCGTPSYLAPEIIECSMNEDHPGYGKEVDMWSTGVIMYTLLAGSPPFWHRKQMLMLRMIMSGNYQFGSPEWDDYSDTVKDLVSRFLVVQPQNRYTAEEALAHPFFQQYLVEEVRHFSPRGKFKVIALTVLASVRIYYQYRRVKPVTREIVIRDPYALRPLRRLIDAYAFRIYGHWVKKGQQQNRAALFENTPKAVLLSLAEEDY
Protein-tyrosine kinase 6 (Homo sapiens), sequence (Q13882 whole entry, looked up): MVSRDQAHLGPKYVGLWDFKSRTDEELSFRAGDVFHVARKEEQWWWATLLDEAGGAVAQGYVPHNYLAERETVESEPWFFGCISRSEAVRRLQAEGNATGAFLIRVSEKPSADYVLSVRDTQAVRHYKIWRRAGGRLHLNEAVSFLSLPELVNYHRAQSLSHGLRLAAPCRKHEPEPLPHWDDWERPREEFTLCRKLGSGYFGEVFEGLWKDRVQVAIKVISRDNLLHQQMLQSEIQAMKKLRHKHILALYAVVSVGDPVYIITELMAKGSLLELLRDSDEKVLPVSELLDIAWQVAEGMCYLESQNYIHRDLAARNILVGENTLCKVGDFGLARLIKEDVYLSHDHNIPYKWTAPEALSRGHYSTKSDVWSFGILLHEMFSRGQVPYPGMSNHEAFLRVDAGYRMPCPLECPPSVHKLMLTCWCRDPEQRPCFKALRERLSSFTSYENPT
Calcium/calmodulin-dependent protein kinase type 1G (Homo sapiens), sequence (Q96NX5 whole entry): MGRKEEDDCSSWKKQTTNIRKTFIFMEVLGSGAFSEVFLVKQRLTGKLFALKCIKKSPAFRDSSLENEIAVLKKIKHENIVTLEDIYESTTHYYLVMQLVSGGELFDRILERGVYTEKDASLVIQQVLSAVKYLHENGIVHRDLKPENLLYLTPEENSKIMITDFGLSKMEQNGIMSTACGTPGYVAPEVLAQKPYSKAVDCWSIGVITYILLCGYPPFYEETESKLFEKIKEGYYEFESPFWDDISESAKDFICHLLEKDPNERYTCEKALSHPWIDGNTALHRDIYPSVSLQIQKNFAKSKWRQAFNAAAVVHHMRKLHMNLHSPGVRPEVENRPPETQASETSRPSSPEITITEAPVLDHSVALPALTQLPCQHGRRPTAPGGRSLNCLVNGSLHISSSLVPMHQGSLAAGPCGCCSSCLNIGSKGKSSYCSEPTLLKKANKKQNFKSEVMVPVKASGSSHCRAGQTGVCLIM

On to `Oc1n[nH]c2nnc(-c3c(-c4ccccc4)nn4ccccc34)cc12`, for which the inhibition in [1] is 0.52%; in experiment [2] it was 10.6%; in experiment [3], -3.39%; in [4], 1.29%; in experiment [5], 2.73%; in [6], 0.26%. Further, the inhibition is -0.17% in experiment [7]; -1.33% in [8]; 0.5% in [9]; 2.92% in experiment [10]; -1.18% in experiment [11].
On to `Nc1n[nH]c2nnc(-c3c(-c4ccccc4)nn4ccccc34)cc12`, for which the inhibition is 9.19% in experiment [1]; 10.5% in experiment [2]; -2.61% in experiment [3]; -0.57% in experiment [4]; 19.8% in experiment [5]; 0.77% in experiment [6]. Also, the inhibition is 2.22% in experiment [7]; 0.32% in [8]; -0.77% in [9]; 1.9% in experiment [10]; -0.96% in experiment [11].
